{"source": "patent US20230165843A1", "about": "“USE AND PHARMACEUTICAL COMPOSITION OF PHENYLISOXAZOLYL METHYLENE-NAPHTHALENE-ETHER DERIVATIVES” (priority 2019, published 2023)", "key": {"HBV (D type)": {"tested_on": "HBV (D type)", "experiment": "PHH (Primary Human Hepatocyte) Assay, HBV infection", "type": "cell-based, hepatitis B virus", "conditions": "PHH cells infected with HBV (D type); for inhibition of HBV RNA: culture supernatant day 9, RT-qPCR, FIG. 3; for inhibition of extracellular HBV DNA: culture supernatant day 9, qPCR, FIG. 1; for inhibition of HBsAg: culture supernatant day 9, FIG. 2", "protocol": "PHH (Primary Human Hepatocyte) Assay: Cell Line and Compound Treatment\nThe PHH cells were seeded into the 48-well plates at the density of 1.32×10^5 cells/well. The PHH cells seeding date was defined as day 0. The PHH cells were infected with HBV (D type) at 1600 GE/cell on day 1. The culture medium containing compounds was refreshed on day 2, 4, 6 and day 8. On day 9, the cells were treated with CCK8 and culture supernatant and cells were collected.\nFXR Compounds were tested at 10000.0, 3000.0, 1000.0, 300.0, 100.0, 30.0, and 10.0 nM, and ETV was tested at 0.2000, 0.0667, 0.0222, 0.0074, 0.0025, 0.0008, and 0.0003 nM. 1% DMSO was used as non-treatment control. The supernatants on day 9 were collected, and analyzed for HBV DNA by qPCR, HBV RNA by RT-qPCR, HBsAg and HBeA by ELISA.\nDNA in the culture supernatants was isolated with the QIAamp 96 DNA Blood Kit according to the manual and quantified by the qPCR. 80 μl of the culture supernatants sample was used to extract DNA. The elution volume was 120 μl. The PCR mix (8 μl/well) and the samples (2 μl/well) or plasmid standards (2 μl/well) were added to the 384-well optical reaction plate and performed using the following program: 95C for 10 min, then cycling at 95° C. 15 sec, 60° C. 1 min for 40 cycles.\nRNA in the culture supernatants was isolated with the PureLink™ Pro 96 Viral RNA Kit according to the manual. 35 μl of the culture supernatants sample was used to extract RNA. The elution volume was 100 μl. HBV RNA was quantified by RT-qPCR.\nFor HepG2-NTCP Assay, HBsAg and HBeAg in the samples harvested on day 9 were measured by the HBsAg ELISA kit (Autobio) and HBeAg ELISA kit (Autobio) according to the manual. For PHH assay, Chemiluminescence Apparatu was used to measure HBsAg according to the Antu HBsAg ELISA kit manual.\n% HBV DNA inhibition=(1−HBV DNA copy number of test sample/avg. HBV DNA copy number of 1% DMSO control)×100%\n% HBV RNA inhibition=(1−HBV RNA copy number of test sample/avg. HBV RNA copy number of 1% DMSO control)×100%\n% HBsAg inhibition=(1−HBsAg quantity of sample/HBsAg quantity of 1% DMSO control)×100%\nThe EC50 and CC50 values were determined by dose-response curves fitted by GraphPad Prism using “log (agonist) vs. response-variable slope”."}, "HBV (rAAV8-1.3HBV)": {"tested_on": "HBV (rAAV8-1.3HBV)", "experiment": "AAV/HBV Mouse Model", "type": "in vivo, mice", "source_text": "AAV/HBV Mouse Model and Compound Treatment\nMale C57BL′6 mice of 5-week old (obtained from Shanghai Jihui Laboratory Animal Care Co., Ltd) were given rAAV8-1.3HBV (1×1011 v.g.) via tail vein to establish infection on Day −28. After 14 days, 21 days, and on Day −4, blood was drawn from submandibular vein to determine the level of HBV DNA, and HBsAg. On Day-4, 40 mice were chosen based on HBV DNA, and HBsAg results, and were randomly assigned to 5 groups. After the mice were infected with HBV virus for 28 days, treatment was given orally once per day, for 4 weeks. Group 1 was given vehicle (0.5% CMC-Na, 10 ml/kg), Group 2 was given positive control ETV (0.1 mg/kg). Groups 3, 4, and 5 were given Compound 33 at 10 mg/kg, 30 mg/kg, and 60 mg/kg, respectively. Blood was drawn from submandibular vein every week to determine the concentration of HBV DNA, HBV RNA, and HBsAg. On Day 28, blood was taken from the heart.\nHBV DNA determination by qPCR. DNA in the mice plasma was isolated with the QIAamp 96 DNA Blood Kit according to the manual and quantified by the qPCR, and performed using the following program: 95C for 10 min, then cycling at […] 15 sec, 60° C. 1 min for 40 cycles.\nHBV RNA determination by qPCR. RNA in the mice plasma was isolated with the PureLink™ Pro 96 Viral RNA/DNA Kit according to the manual. 20 μl of the plasma was used to extract RNA\nHBsAg determination by ELISA. HBsAg in the samples was measured by the HBsAg ELISA kit (Autobio) according to the manual. Briefly, after the plasma was diluted 1200× in a coated plate, and incubate with the enzyme conjugated ([…], 60 min), and the plate was washed 5 time. Substrate was added, and it was kept from light at room temperature for 10 min and intensity was measured by a plated reader.\nAverage±Standard deviation was calculated for each group, and analyzed with Student's t-test."}, "[1]": {"conditions": "positive control 0.1 mg/kg orally once per day, 4 weeks"}}, "data": [{"smiles": "C=C1[C@H](CO)[C@@H](O)C[C@@H]1n1cnc2c(=O)[nH]c(N)nc21", "note": "[ETV, entecavir, reference compound]", "values": [{"measurement": "inhibition of HBV RNA", "setting": "HBV (D type)", "value": "no significant inhibition"}, {"measurement": "inhibition of extracellular HBV DNA", "setting": "HBV (D type)", "value": "significant inhibition"}, {"measurement": "inhibition of HBsAg", "setting": "HBV (D type)", "value": "no significant inhibition"}, {"measurement": "effect on HBV RNA as compared to the vehicle group", "setting": "HBV (rAAV8-1.3HBV); [1]", "value": "no significant effect"}, {"measurement": "effect on HBsAg as compared to the vehicle group", "setting": "HBV (rAAV8-1.3HBV); [1]", "value": "no significant effect"}]}, {"smiles": "O=C(O)c1ccc(Oc2ccc3cc(OCc4c(-c5c(Cl)cccc5Cl)noc4C4CC4)ccc3c2)nc1", "note": "[Compound 1, 6-((6-((5-cyclopropyl-3-(2,6-dichlorophenyl)isoxazol-4-yl)methoxy)naphthalen-2-yl)oxy)nicotinic acid]", "values": [{"measurement": "inhibition of HBV RNA", "setting": "HBV (D type)", "value": "dose-dependent inhibition"}, {"measurement": "inhibition of extracellular HBV DNA", "setting": "HBV (D type)", "value": "dose-dependent inhibition"}, {"measurement": "inhibition of HBsAg", "setting": "HBV (D type)", "value": "dose-dependent inhibition"}]}, {"smiles": "O=C(O)c1ccc(Oc2cccc3cc(OCc4c(-c5c(Cl)cccc5Cl)noc4C4CC4)ccc23)nc1", "note": "[Compound 22, 6-((6-((5-cyclopropyl-3-(2,6-dichlorophenyl)isoxazol-4-yl)methoxy)naphthalen-1-yl)oxy)nicotinic acid]", "values": [{"measurement": "inhibition of HBV RNA", "setting": "HBV (D type)", "value": "dose-dependent inhibition"}, {"measurement": "inhibition of extracellular HBV DNA", "setting": "HBV (D type)", "value": "dose-dependent inhibition"}, {"measurement": "inhibition of HBsAg", "setting": "HBV (D type)", "value": "dose-dependent inhibition"}]}, {"smiles": "O=C([O-])c1ccc(Oc2ccc3cc(OCc4c(-c5c(Cl)cccc5Cl)noc4C4CC4)ccc3c2)nc1.[Na+]", "note": "[Compound 33, Sodium 6-((6-((5-cyclopropyl-3-(2,6-dichlorophenyl)isoxazol-4-yl)methoxy)naphthalen-2-yl)oxy)nicotinate]", "values": [{"measurement": "HBsAg, lowered as compared to the vehicle group", "setting": "HBV (rAAV8-1.3HBV); high dose group 60 mg/kg orally once per day, 28 days, FIG. 6", "value": "0.38 log 10 [IU/ml]"}, {"measurement": "HBV RNA, lower than the vehicle group", "setting": "HBV (rAAV8-1.3HBV); high dose group 60 mg/kg orally once per day, 28 days, significantly lower than vehicle (p<0.01), FIG. 5", "value": "0.60-0.66 log 10[RNA copy/uL]"}, {"measurement": "HBV DNA, lower than the vehicle group", "setting": "HBV (rAAV8-1.3HBV); high dose group 60 mg/kg orally once per day, 28 days, significantly lower than vehicle (p<0.05), FIG. 4", "value": "0.77-1.12 log 10[DNA copy/uL]"}]}, {"smiles": "Cc1nc(Oc2cccc3cc(OCc4c(-c5c(Cl)cccc5Cl)noc4C4CC4)ccc23)ccc1C(=O)O", "note": "[Compound 27, 6-((6-((5-cyclopropyl-3-(2,6-dichlorophenyl)isoxazol-4-yl)methoxy)naphthalen-1-yl)oxy)-2-methylnicotinic acid]", "values": [{"measurement": "inhibition of HBV RNA", "setting": "HBV (D type)", "value": "dose-dependent inhibition"}, {"measurement": "inhibition of extracellular HBV DNA", "setting": "HBV (D type)", "value": "dose-dependent inhibition"}, {"measurement": "inhibition of HBsAg", "setting": "HBV (D type)", "value": "dose-dependent inhibition"}]}]}
